Tests used:
[1] = test system: Deinococcus radiopugnans strain DRH40; assay: Soil sample suspension maintained in presence of bleocin, growth of colonies; format: cell-based; conditions: 50 μg/ml bleocin
Experimental: (§1) Soil samples containing Deinococcus radiopugnans strain DRH40 were placed in suspension under conditions similar to that of example 2. In place of irradiation, the suspensions were maintained in the absence (control) or presence of 50 μg/ml or 100 μg/ml of bleocin.

indigenous microflora = assay: as above; format: cell-based; conditions: 50 μg/ml bleocin
Experimental: as §1

bleocin
growing pink colonies (Deinococcus) [1]: pink colonies are present | effect on indigenous microflora (indigenous microflora): decreases drastically

From patent US9279134B2, “Methods for isolating bacteria” (DEINOVE, priority 2009, dated 2016)
